Tests used:
[1] = tested on: two-component signal transduction systems (Taz system); assay: Taz-1 assay (two-component signal transduction, beta-galactosidase activity); format: cell-based, E. coli RU1012 (pYT0301); conditions: for reduction of beta-galactosidase activity: 3 mM aspartate, 4 hours; for inhibition of two-component signal transduction systems: no concentration stated
Protocol: The Taz-assay carried out according to the method of Jin and Inouyc (1993) with the following alterations. E. coli RU1012 (pYT0301) were grown overnight in M9 medium at 37° C. supplemented with 100 ug/ml ampicillin and 50 ug/ml kanamycin. This overnight culture was then used to inoculate 50 ml M9 medium in side-arm flasks which were then incubated at 37° C. and shaken at 180 rpm. The OD610 of the growing cultures was monitored regularly and when the OD610=0.2 the cultures were placed on ice […] to give a final concentration of 3 mM (aspartate stock solution made up in M9 salts).
The test compound or mixtures of compounds were dissolved in ethanol and added to cultures to give the required final concentrations. Negative controls were prepared with equal volumes of ethanol. Cultures were then placed in a 37° C. incubator and shaken for 4 hours (OD610 approximately 0.7) before being removed and put on ice. Samples were then removed for beta-galactosidase assays carried out according to the method of Miller (1972). Aspartate (the natural inducer of the Taz system) was used as a positive control at a concentration of 3 mmolar.

[2] = tested on: V. harveyi reporter strain BB170 Al-2 bioluminescence; assay: V. harveyi bioassay for the detection of Al-2 activity (bioluminescence); format: cell-based, Vibrio harveyi; conditions: concentration of 50 ug/ml
Protocol: The V. harveyi bioassay was performed as described previously (Surette and Bassler, 1998). The V. harveyi reporter strain BB170 was grown for 16 hours at 30° C. with shaking in AB medium. Cells were diluted 1:5,000 into 30° C. prewarmed AB medium and 90 ul of the diluted suspension was added to wells containing supernatant. Compounds to be tested were added to the wells to achieve the desired final concentrations and the final volume in each well was adjusted with sterile medium to 100 ul. Ten ul of V. harveyi BB152 (Al-1−, Al-2+) supernatant was used as a positive control and 10 ul of E. coli DH5α supernatant or sterile media was used as a negative control. […] The microtiter plates were incubated at 30° C. with shaking at 175 rpm. Hourly determinations of the total luminescence were quantified using the chemiluminescent setting on a Wallac (Gaithersburg, Md.) model 1450 Microbeta Plus liquid scintillation counter. The V. harveyi cell density was monitored by the use of a microplate reader (Bio-Rad, Hercules, Calif.). Activity is reported as the percentage of activity obtained from V. harveyi BB152 cell-free supernatant. While the absolute values of luminescence varied considerably between experiments, the pattern of results obtained was reproducible.

Staphylococcus aureus = assay: Growth of Staphylococcus aureus in sidearm flasks (absorbance 610 nm); format: cell-based
Protocol: Compounds 122 and 123 were tested against growth of Staphylococcus aureus. The experiments were performed in sidearm flasks and the growth was measured at 610 nm for 12 hours. Hundred μl of an overnight culture was added to 10 ml of growth medium. Nutrient Broth, containing furanones at concentrations 10 and 25 μg/ml. The bacteria were incubated at 37° C.

[3] = tested on: Pseudomonas aeruginosa (PA01 DO); assay: Attachment of Pseudomonas aeruginosa (PA01 DO), crystal violet, microtiter plate; format: cell-based; conditions: no concentration stated
Protocol: The experiments were performed in 96 wells microtiter plates using a volume of 200 μl. The growth medium was M9 and the plates were incubated at 37° C. One % of overnight inoculum was used and the concentrations of the compounds to be tested were 25 and 50 μg/ml. The attachment of the cells were monitored at the endpoint of the experiment which was after 24 hrs. The cells were stained with crystal violet and the absorbance was measured at 595 nm. Reduction in attachment was measured against the control (PAO1 Do ETO ) set at 100%.

Porphyromonas canoris [4] = assay: Growth of Porphyromonas canoris (Example 9); format: cell-based; conditions: 50 μg/ml; BHI, 24 hrs
Protocol: (§1) The experiments were performed in 96 well microtiter plates using a volume of 100 μl. The growth medium was BHI and the plates were incubated at 37° C. One % of overnight inoculum was used and the concentration of the compound to be tested was 50 μg/ml. Both growth and attachment of the cells were monitored at the end point of the experiments which was and after 24 hrs with P. canoris. The cells were stained with crystal violet and the absorbance was measured at 595 nm.

Porphyromonas canoris [5] = assay: Attachment of Porphyromonas canoris (Example 9); format: cell-based; conditions: 50 μg/ml; BHI, 24 hrs
Protocol: as §1

Pseudomonas aeruginosa [6] = assay: Growth of Pseudomonas aeruginosa (Example 10); format: cell-based; conditions: 50 μg/ml; 1:9 dilution of TBY medium, 6 hrs
Protocol: as §1
(§2) As Example 9, but the used medium was a 1:9 dilution of TBY medium and the incubation time was 6 hrs.

Pseudomonas aeruginosa [7] = assay: Attachment of Pseudomonas aeruginosa (Example 10); format: cell-based; conditions: 50 μg/ml; 1:9 dilution of TBY medium, 6 hrs
Protocol: as §1, §2

[8] = 25 μg/ml, Nutrient Broth, 37° C., 12 hours

CC(=O)/C(C)=C/Br [Compound 80, 3-(Bromomethylene)-2-Butanone]
reduction of beta-galactosidase activity ([1]; concentration of 50 ug/ml): 75%
inhibition of two-component signal transduction systems [1]: act as inhibitors

CCCCC(=CBr)C(C)=O [Compound 101, 3-(Bromomethylene)-2-Heptanone]
effect on bioluminescence activity [2]: significant increase

CCC/C(=C\Br)C(C)=O [Compound 122, 3-(Bromomethylene)-2-Hexanone]
growth inhibition (Staphylococcus aureus; [8]): slight growth inhibition
effect on attachment [3]: reduce the attachment
effect on bioluminescence activity [2]: significant increase

CCC(=O)/C(C)=C/Br [Compound 123, 2-(Bromomethylene)-3-Pentanone]
reduction of beta-galactosidase activity ([1]; concentration of 25ug/ml): 40%
inhibition of two-component signal transduction systems [1]: act as inhibitors
growth inhibition (Staphylococcus aureus; 10 μg/ml, Nutrient Broth, 37° C., 12 hours): slight growth inhibition
prolonged lagphase of growth (Staphylococcus aureus; [8]): 4 h
growth inhibition compared to 122 (Staphylococcus aureus; concentrations 10 and 25 μg/ml): more growth inhibitory
effect on attachment [3]: reduce the attachment
effect on bioluminescence activity [2]: significant increase
effect on growth (Porphyromonas canoris [4]): relatively insignificant effect
effect on attachment to a surface (Porphyromonas canoris [5]): significantly limits
effect on growth (Pseudomonas aeruginosa [6]): relatively insignificant effect
effect on attachment to a surface (Pseudomonas aeruginosa [7]): significantly limits
